The subject of data set [1] is hyperuricemia model of rats. The experiment in a line: Comparative test in potassium oxonate hyperuricemia rats: serum uric acid, urea nitrogen and creatinine (Example 23). It is filed as in vivo. The note with it: 15 d intragastric, allopurinol 27 mg/kg + potassium oxonate 1.5 g/kg, mean ± SD. An excerpt: (license number: SOCK (Beijing) 2012-0001) were taken. […] Allopurinol, Tokyo chemical industry Co. […] Uric acid and urea nitrogen test kit were provided by Centronic GmbH company in German, with the batch numbers of UF03121HH6G and UF01121G[…] respectively, and creatinine test kit was provided by Shanghai Lanyi Technology Co. Ltd. with the batch number of […]. […] Modeling principle: the rats were intragastrically administered with the chemical uricase inhibitor, potassium oxonate to inhibit the uricase activity in the rats, which make the uric acid in their body unable to be decomposed and resulting in an increase of serum uric acid to replicate the hyperuricemia model of rats. The body weights of the rats were monitored, the blood samples were collected to measure the uric acid, creatinine and urea nitrogen before the experiments and at the 15th day of the administration, and the variance ratio of the serum uric acid levels was measured and calculated. Comparative Test […] Coicis semen 18, Cichorii Herba 8, […] Herba 8 and Pueraia Lobata Radix 8. The health food having the function of lowering uric acid provided in Comparative Example 2 of the present invention is prepared from the following components in parts by weight: Coicis semen 18, Motherwort 10, Cichorii Herba 8, […] Herba 8, Pueraia Lobata Radix 8 and tuna extract 0.1. […] Coicis semen 18, […] semen 9, Cichorii Herba 8, […] […]

Data set [2] can be described thus: Animal body weights in the comparative test (Example 23). Type of data set: in vivo, SD rats. The note with it: allopurinol 27 mg/kg + potassium oxonate 1.5 g/kg, mean ± SD. Here is the method:
(§1) 105 SPF grade SD rats, all of which are male and have a body weight of 200±20 (g), provided by Beijing Vital River Laboratory Animal Technology Co., Ltd. (license number: SOCK (Beijing) 2012-0001) were taken. Potassium oxonate, Jinan Chenghuishuangda Chemical Co., Ltd. product with the batch number of 12042001, was prepared with 0.1% CMC-Na into a suspension of a concentration of 0.15 g/ml in an amount for 3 d each time and the stock was stored at 4° C. Allopurinol, Tokyo chemical industry Co. Ltd. product with the batch number of MYRYA-IR, was prepared with 0.1% CMC-Na into a suspension of a concentration of […] in an amount for 3 d each time and the stock was stored at 4° C. . Uric acid and urea nitrogen test kit were provided by Centronic GmbH company in German, with the batch numbers of UF03121HH6G and UF01121GG66G respectively, and creatinine test kit was provided by Shanghai Lanyi Technology Co. Ltd. with the batch number of R102APA.
(§2) The same volume of drinking water was intragastrically administered to the normal control group every day, and the potassium oxonate was intragastrically administered to each of the rest groups of rats every morning at 1.5 g·kg^−1·d^−1; the same volume of physiological saline was intragastrically administered to the model group in the afternoon; the allopurinol was intragastrically administered to the allopurinol group at 27 mg·kg^−1·d^−1 in the afternoon; the samples to be tested of different doses diluted to the same volume were intragastrically administered to the Sample 1 of high-dose and low-dose groups and the Sample 2 of high-dose and low-dose groups in the afternoon.
(§3) The body weights of the rats were monitored, the blood samples were collected to measure the uric acid, creatinine and urea nitrogen before the experiments and at the 15th day of the administration, and the variance ratio of the serum uric acid levels was measured and calculated.
Experimental group: Sample 1—the composition prepared in Example 1.

Data set [3] is described as follows: Animal body weights in the hyperuricemia rat experiment (Example 22). It is filed as in vivo, SD rats. The note with it: allopurinol 27 mg/kg + potassium oxonate 1.5 g/kg, intragastric, mean ± SD. The protocol:
as §1
SD rats were adapted for 5 days in the experimental environment, and randomly divided by body weight into normal control group, model group, allopurinol group, Sample 1 (the composition of Chinese herbal medicines and tuna extract prepared in Example 18) high-dose group and low-dose group and Sample 2 (the composition of Chinese herbal medicines prepared in Example 18 excluding tuna extract) high-dose group and low-dose group. According to the clinical dose, the intragastric doses of Samples 1 and 2 were 5 times larger (0.2 ml/100 g) and 30 times larger (1.25 ml/100 g) than the recommended amount for human body for the low-dose groups and high-dose groups, respectively.
as §2, §3

Data set [4] has as its system hyperuricemia model of rats. Briefly: Potassium oxonate hyperuricemia model of rats: serum uric acid, urea nitrogen and creatinine after 15 d intragastric administration (Example 22). Type of data set: in vivo. As to conditions: allopurinol 27 mg/kg + potassium oxonate 1.5 g/kg.
Description: 105 SPF grade SD rats, all of which are male and have a body weight of 200±20 (g), provided by Beijing Vital River Laboratory Animal Technology Co., Ltd. (license number: SOCK (Beijing) 2012-0001) were taken. Potassium oxonate, Jinan Chenghuishuangda Chemical Co., Ltd. product with the batch number of 12042001, was prepared with 0.1% CMC-Na into a suspension of a concentration of 0.15 g/ml in an amount for 3 d each time and the stock was stored at 4° C. Allopurinol, Tokyo chemical industry Co. Ltd. product with the batch number of MYRYA-IR, was prepared with 0.1% CMC-Na into a suspension of a concentration of 2.7 g/ml in an amount for 3 d each time and the stock was stored at 4° C. . Uric acid and urea nitrogen test kit were provided by Centronic GmbH company in German, with the batch numbers of UF03121HH6G and UF01121GG66G respectively, and creatinine test kit was provided by Shanghai Lanyi Technology Co. Ltd. with the batch number of R102APA. […]
The body weights of the rats were monitored, the blood samples were collected to measure the uric acid, creatinine and urea nitrogen before the experiments and at the 15th day of the administration, and the variance ratio of the serum uric acid levels was measured and calculated. […]

Consider `Oc1ncnc2[nH]ncc12` [Allopurinol], for which the Creatinine in data set [1] (model group 31.0 ± 3.3) amounted to 27.9 ± 2.2 µmol/L; in data set [4] (model group 31.0 ± 3.3, mean ± SD), 27.9 ± 2.2 µmol/L. The “Uric Acid” value was 31.8 ± 10.3 µmol/L in data set [1] (model group 256.4 ± 41.3) and 31.8 ± 10.3 µmol/L in data set [4] (model group 256.4 ± 41.3, mean ± SD). The “animal body weights, Before Experiments” value in data set [2] (baseline, N=15) was 290 ± 13 g; in data set [3] (baseline, N=15), 290 ± 13 g. Also, the “animal body weights, 1 week after treatment” value in data set [2] and in data set [3] was 322 ± 20 g in each case. In addition, the “animal body weights, 2 weeks after treatment” value in data set [2] and in data set [3] was 352 ± 24 g throughout. In addition, the “animal body weights, 3 weeks after treatment” value in data set [2] and in data set [3] was 366 ± 28 g each time. The “animal body weights, 4 weeks after treatment” value in data set [2] and in data set [3] was 387 ± 29 g in each case.

The values are drawn from patent US20170014467A1, “COMPOSITION AND THE USE THEREOF” (INFINITUS (CHINA) COMPANY LTD., priority 2015, published 2017).
